Measured values published in patent publication US11207312B2, “Metallo-beta-lactamase inhibitors and methods of use thereof” (priority 2017, dated 2021).

Experiments:
[1] = target: NDM-1 (Klebsiella pneumoniae, UniProt C7C422); assay: biochemical; format: biochemical; conditions: CCF2-FA fluorescence assay, 2 hours at 25° C.
Method in brief: (§1)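 Enzyme (NDM-1 1 pM, IMP-1 2 pM, VIM-1 30 pM final) and 1.25 μM CCF2-FA incubated with inhibitor (20 to 0.00063 μM) for 2 h at 25° C in 100 mM KH2PO4 pH 7, 0.005% Tween-20, 10 μM ZnSO4. Fluorescence read at ex 405/em 460 nm; IC50 by 4-parameter fit.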

[2] = tested on: P. aeruginosa MB9799 (efflux-, IMP-1 plasmid); format: cell-based, Pseudomonas aeruginosa; conditions: efflux − (MB9799) strain; imipenem at 2 μg/mL; in the presence of a class A, C, D serine β-lactamase inhibitor closely related to relebactam
Method in brief: (§2)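 Isogenic P. aeruginosa PAO1 strains (efflux+ and multiple-efflux-pump-disrupted) carrying plasmid IMP-1, with inducible AmpC, tested by broth microdilution. Imipenem and/or ceftazidime fixed, usually at CLSI breakpoint, plus fixed class A/C β-lactamase inhibitor; titrated MBL inhibitor concentration restoring susceptibility recorded and compared between strains as efflux fold difference.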

[3] = target: VIM-1 (Pseudomonas aeruginosa (strain ATCC 15692 / DSM 22644 / CIP 104116 / JCM 14847 / LMG 12228 / 1C / PRS 101 / PAO1), UniProt A0A0F7KYQ8); assay: biochemical; conditions: CCF2-FA fluorescence assay, 2 hours at 25° C.; read-out: VIM1 IC50
Method in brief: as §1

[4] = target: IMP-1 (Serratia marcescens, UniProt P52699); assay: biochemical; conditions: CCF2-FA fluorescence assay, 2 hours at 25° C.; read-out: IMP1 IC50
IMP-1, sequence (P52699 whole entry, looked up, species assumed): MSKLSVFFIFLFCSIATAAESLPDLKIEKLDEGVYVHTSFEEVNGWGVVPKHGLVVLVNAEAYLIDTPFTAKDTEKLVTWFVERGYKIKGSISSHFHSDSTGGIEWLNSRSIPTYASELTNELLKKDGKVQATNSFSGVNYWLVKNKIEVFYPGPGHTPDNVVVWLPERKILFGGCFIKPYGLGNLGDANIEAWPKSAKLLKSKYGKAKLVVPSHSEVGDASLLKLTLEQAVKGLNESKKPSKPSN
Method in brief: as §1

[5] = tested on: Serratia marcescens expressing IMP-1 (CL5741); format: cell-based; conditions: with imipenem 1 μg/ml; 95% inhibition of bacterial growth
Method in brief: (§3)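 Clinical MBL-producing strains were grown overnight at 35 °C on blood agar, suspended in saline, diluted 1:100 into 1.1× CAMHB and exposed to test compound with imipenem at 1 μg/ml. After 22–24 h at 35 °C, absorbance gave MITC95: lowest compound concentration inhibiting 95% of growth.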

[6] = tested on: Klebsiella pneumoniae expressing VIM-1 (IHMA599644); format: cell-based; conditions: with imipenem 1 μg/ml; 95% inhibition of bacterial growth
Method in brief: as §3

[7] = tested on: Escherichia coli expressing NDM-1 (CLB30016); format: cell-based; conditions: with imipenem 1 μg/ml; 95% inhibition of bacterial growth
Method in brief: as §3

[8] = target: VIM-2 (Escherichia coli, UniProt Q5U7L7); assay: biochemical; conditions: CCF2-FA fluorescence assay; read-out: VIM2 IC50
[9] = tested on: P. aeruginosa MB9798 (efflux+, IMP-1 plasmid); conditions: for MB9798 MITC95 P. aeruginosa uM Efflux WT: efflux + (MB9798) strain, imipenem at 2 μg/mL, in the presence of a class A, C, D serine β-lactamase inhibitor closely related to relebactam; for Efflux ratio: fold difference between efflux+ (MB9798) and efflux− (MB9799) strains
Method in brief: as §2

NDM-1, sequence (C7C422 whole entry, looked up, species assumed): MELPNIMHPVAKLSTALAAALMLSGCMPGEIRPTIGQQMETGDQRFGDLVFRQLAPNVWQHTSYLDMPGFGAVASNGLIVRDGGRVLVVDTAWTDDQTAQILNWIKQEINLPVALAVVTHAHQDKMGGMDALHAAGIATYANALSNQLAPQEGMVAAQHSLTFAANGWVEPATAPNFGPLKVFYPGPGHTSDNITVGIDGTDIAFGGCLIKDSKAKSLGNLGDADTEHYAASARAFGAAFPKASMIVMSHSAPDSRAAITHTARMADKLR

Row | Compound | IC50 [1] | MB9799 MITC95 P. aeruginosa uM Efflux Mutant [2] | IC50 [3] | IC50 [4] | CL5741 S. marcescens MITC95 IMP [5] | IHMA599644 K. pneumoniae MITC95 VIM [6] | CLB30016 E. coli MITC95 NDM [7] | IC50 [8] | MB9798 MITC95 P. aeruginosa uM Efflux WT [9] | Efflux ratio [9]
1 | N[C@@H]1CCCN(c2ccc(S(=O)(=O)N[C@@H]3CCNC3)c(S(N)(=O)=O)c2-c2nnn[nH]2)C1 [Example 86, 4-[(3R)-3-aminopiperidin-1-yl]-N1-[(3R)-pyrrolidin-3-yl]-3-(1H-tetrazol-5-yl)benzene-1,2-disulfonamide] | 1.37 nM | 1.56 µM | 3.83 nM | 58.8 nM | 1.56 µM | 1.56 µM | 0.39 µM | 14 nM | 12.50 µM | 8.00
2 | NS(=O)(=O)c1c(S(=O)(=O)C2CNC2)ccc(N2C[C@H](O)C[C@@H](O)C2)c1-c1nnn[nH]1 [Example 55, 6-(azetidin-3-ylsulfonyl)-3-[(3R,5R)-3,5-dihydroxypiperidin-1-yl]-2-(1H-tetrazol-5-yl)benzenesulfonamide] | 51.5 nM | 6.25 µM | 62.3 nM | 200 nM | 12.50 µM | 12.50 µM | 1.56 µM | 145 nM | 100.00 µM | 16.00
3 | C[C@H](CN)NS(=O)(=O)c1ccc(N2CCC(CCN)CC2)c(-c2nn[nH]n2)c1S(N)(=O)=O [Example 185, (R)-4-(4-(2-aminoethyl)piperidin-1-yl)-N1-(1-aminopropan-2-yl)-3-(2H-tetrazol-5-yl)benzene-1,2-disulfonamide] | 0.33 nM | 0.78 µM | 0.04 nM | 0.6 nM | 1.56 µM | 1.56 µM | 0.78 µM | 0.71 nM | 0.78 µM | 1.00
4 | NCC1CCCN(c2ccc(S(=O)(=O)NC[C@H](O)CN)c(S(N)(=O)=O)c2-c2nn[nH]n2)CC1 (stereo partly drawn) [Example 139, N1-((R)-3-amino-2-hydroxypropyl)-4-(4-(aminomethyl)azepan-1-yl)-3-(2H-tetrazol-5-yl)benzene-1,2-disulfonamide bis(2,2,2-trifluoroacetate)] | 18.2 nM | 0.78 µM | 0.39 nM | 18.5 nM | 0.78 µM | 1.56 µM | 0.78 µM | 4.52 nM | 1.56 µM | 2.00
5 | NCC1CCN(c2ccc(S(=O)(=O)N[C@@H]3CCNC3)c(S(N)(=O)=O)c2-c2nnn[nH]2)CC1 [Example 77, 4-[4-(aminomethyl)piperidin-1-yl]-N1-[(3R)-pyrrolidin-3-yl]-3-(1H-tetrazol-5-yl)benzene-1,2-disulfonamide] | 0.53 nM | 0.39 µM | 0.11 nM | 1.83 nM | 0.78 µM | 0.78 µM | 0.78 µM | 1.8 nM | 0.78 µM | 2.00
6 | CN(C)[C@@H]1CCN(c2ccc(S(=O)(=O)N[C@@H]3CCNC3)c(S(N)(=O)=O)c2-c2nnn[nH]2)C1 [Example 68, 4-[(3R)-3-(dimethylamino)pyrrolidin-1-yl]-N1-[(3R)-pyrrolidin-3-yl]-3-(1H-tetrazol-5-yl)benzene-1,2-disulfonamide] | 22.1 nM | 1.56 µM | 2.11 nM | 16.2 nM | 1.56 µM | 1.56 µM | 0.78 µM | 17.8 nM | 12.50 µM | 8.00
7 | COC(=O)C1CCN(c2ccc(S(=O)(=O)N[C@@H]3CCNC3)c(S(N)(=O)=O)c2-c2nn[nH]n2)CCN1.Cl (stereo partly drawn) [Example 164, Methyl 1-(4-(N-((R)-pyrrolidin-3-yl)sulfamoyl)-3-sulfamoyl-2-(2H-tetrazol-5-yl)phenyl)-1,4-diazepane-5-carboxylate hydrochloride] | 0.63 nM | 3.13 µM | 0.12 nM | 0.54 nM | 1.56 µM | 3.13 µM | 0.39 µM | 0.69 nM | 6.25 µM | 2.00
8 | NCC=C1CCCN(c2ccc(S(=O)(=O)NC[C@H](O)CN)c(S(N)(=O)=O)c2-c2nn[nH]n2)C1 (single isomer, unassigned; isomer a) [Example 205] | 7.59 nM | 1.56 µM | 0.34 nM | 19.7 nM | 1.56 µM | 1.56 µM | 0.78 µM | 1.07 nM | 12.50 µM | 8.00
9 | NC[C@@H](O)CNS(=O)(=O)c1ccc(N2CCOC(CO)C2)c(-c2nn[nH]n2)c1S(N)(=O)=O (stereo partly drawn) [Example 20, N^1—((R)-3-amino-2-hydroxypropyl)-4-(2-(hydroxymethyl)morpholino)-3-(2H-tetrazol-5-yl)benzene-1,2-disulfonamide] | 0.77 nM | 0.78 µM | 0.26 nM | 1.53 nM | 0.78 µM | 3.13 µM | 1.56 µM | 0.49 nM | 3.13 µM | 4.00
10 | NS(=O)(=O)c1c(S(=O)(=O)N[C@@H]2CCNC2)ccc(N2CCC(c3c[nH]cn3)CC2)c1-c1nn[nH]n1 [Example 166, (R)-4-(4-(1H-imidazol-4-yl)piperidin-1-yl)-N1-(pyrrolidin-3-yl)-3-(2H-tetrazol-5-yl)benzene-1,2-disulfonamide] | 0.12 nM | 0.78 µM | 0.09 nM | 0.22 nM | 0.78 µM | 1.56 µM | 0.78 µM | 0.53 nM | 0.78 µM | 1.00
11 | NS(=O)(=O)c1c(S(=O)(=O)N[C@@H]2CCNC2)ccc(NCCN2CCOCC2)c1-c1nnn[nH]1 [Example 64, 4-[(2-morpholin-4-ylethyl)amino]-N1-[(3R)-pyrrolidin-3-yl]-3-(1H-tetrazol-5-yl)benzene-1,2-disulfonamide] | 5.51 nM | 1.56 µM | 1.62 nM | 3.26 nM | 1.56 µM | 6.25 µM | 1.56 µM | 8.19 nM | 25.00 µM | 15.99
